# Laboratory results published in patent publication US6737383B1, “Herbicidal oxadiazolidines” (priority 1999, dated 2004).
# Tests used:
# [1] = system: blackgrass; assay: Test B pre/postemergence blackgrass; format: in vivo, Alopecurus myosuroides
# Procedure, shortened: (§1)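 Test chemicals in a non-phytotoxic solvent mixture with surfactant were sprayed preemergence onto planted seeds and postemergence onto plants 2 to 18 cm tall (1- to 4-leaf stage). After twelve to sixteen days in a greenhouse, injury was visually rated against untreated controls from 0 (no effect) to 10 (complete control).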
# [2] = system: surinam grass; assay: Test B pre/postemergence surinam grass; format: in vivo, Brachiaria decumbens
# Procedure, shortened: as §1
# [3] = system: cocklebur; assay: Test B pre/postemergence cocklebur; format: in vivo, Xanthium strumarium
# Procedure, shortened: as §1
# [4] = system: corn; assay: Test B pre/postemergence corn; format: in vivo, Zea mays
# Procedure, shortened: as §1
# [5] = system: crabgrass; assay: Test B pre/postemergence crabgrass; format: in vivo, Digitaria sanguinalis
# Procedure, shortened: as §1
# [6] = system: giant foxtail; assay: Test B pre/postemergence giant foxtail; format: in vivo, Setaria faberii
# Procedure, shortened: as §1
# [7] = system: morningglory; assay: Test B pre/postemergence morningglory; format: in vivo, Ipomoea hederacea
# Procedure, shortened: as §1
# [8] = system: pigweed; assay: Test B pre/postemergence pigweed; format: in vivo, Amaranthus retroflexus
# Procedure, shortened: as §1
# [9] = system: rape; assay: Test B pre/postemergence rape; format: in vivo, Brassica napus
# Procedure, shortened: as §1
# [10] = system: soybean; assay: Test B pre/postemergence soybean; format: in vivo, Glycine max
# Procedure, shortened: as §1
# [11] = system: sugar beet; assay: Test B pre/postemergence sugar beet; format: in vivo, Beta vulgaris
# Procedure, shortened: as §1
# [12] = system: velvetleaf; assay: Test B pre/postemergence velvetleaf; format: in vivo, Abutilon theophrasti
# Procedure, shortened: as §1
# [13] = system: wheat; assay: Test B pre/postemergence wheat; format: in vivo, Triticum aestivum
# Procedure, shortened: as §1
# [14] = system: wild oat; assay: Test B pre/postemergence wild oat; format: in vivo, Avena fatua
# Procedure, shortened: as §1
# [15] = system: purple nutsedge; assay: Test B pre/postemergence purple nutsedge; format: in vivo, Cyperus rotundus
# Procedure, shortened: as §1
# [16] = system: rice; assay: Test B flood test rice; format: in vivo, Oryza sativa
# Procedure, shortened: (§2)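 Read-out is a visual response score from 0 (no effect) to 10 (complete control), assigned by comparison with untreated controls. Treatment was applied at the 2-leaf stage, and plants stayed in the greenhouse for twelve to sixteen days before scoring.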
# [17] = system: smallflower flatsedge; assay: Test B flood test smallflower flatsedge; format: in vivo, Cyperus difformis
# Procedure, shortened: as §2
# [18] = system: duck salad; assay: Test B flood test duck salad; format: in vivo, Heteranthera limosa
# Procedure, shortened: as §2
# [19] = system: bamyardgrass; assay: Test B flood test barnyardgrass; format: in vivo, Echinochloa crus-galli
# Procedure, shortened: as §2
# [20] = Postemergence, Rate 125 g/ha, scale 0 to 10, 0 is no effect, 10 is complete control
# [21] = Postemergence, Rate 250 g/ha, scale 0 to 10, 0 is no effect, 10 is complete control
# [22] = Postemergence, Rate 500 g/ha, scale of 0 to 10 where 0 is no effect and 10 is complete control
# [23] = Preemergence, Rate 62 g/ha, scale 0 to 10 (0 no effect, 10 complete control)
# [24] = Preemergence, Rate 125 g/ha, scale of 0 to 10 where 0 is no effect and 10 is complete control
# [25] = Preemergence, Rate 250 g/ha, scale of 0 to 10 where 0 is no effect and 10 is complete control
# [26] = Preemergence, Rate 500 g/ha, scale 0 to 10, 0 is no effect, 10 is complete control
# [27] = Rate 62 g/ha, Postemergence, scale of 0 to 10 where 0 is no effect and 10 is complete control
# [28] = Preemergence, Rate 250 g/ha, scale 0 to 10, 0 is no effect, 10 is complete control
# [29] = Rate 62 g/ha, flood test species, Pre-emergence, visual evaluation after twelve to sixteen days
# [30] = Rate 125 g/ha, under heading Pre-emergence, flood test species, visual evaluation after twelve to sixteen days
# [31] = Rate 250 g/ha, Pre-emergence, flood-test species, scale 0 to 10, 0 is no effect, 10 is complete control
# [32] = Rate 500 g/ha, Pre-emergence, flood test species, scale 0 to 10 (0 no effect, 10 complete control)
smiles,measurement,setting,value
Cc1nc(Cl)sc1C(C)n1c(=O)on(C(=O)N(c2ccc(F)cc2F)C(C)C)c1=O (stereo not shown) [Compound 405],"Plant response rating, Blackgrass",[1]; [20],0
same,"Plant response rating, Blackgrass",[1]; [21],0
same,Blackgrass plant response rating,[1]; [22],5
same,"Plant response rating, Blackgrass",[1]; [23],0
same,"Plant response rating, Blackgrass",[1]; [24],0
same,Blackgrass plant response rating,[1]; [25],0
same,Blackgrass plant response rating,[1]; [26],0
same,Blackgrass plant response rating,[1]; [27],0
same,"Plant response rating, B. signalgrass",[2]; [20],0
same,"Plant response rating, B. signalgrass",[2]; [21],0
same,B. signalgrass plant response rating,[2]; [22],0
same,"Plant response rating, B. signalgrass",[2]; [23],0
same,"Plant response rating, B. signalgrass",[2]; [24],0
same,B. signalgrass plant response rating,[2]; [25],0
same,B. signalgrass plant response rating,"[2]; Preemergence, Rate 500 g/ha, scale of 0 to 10 where 0 is no effect and 10 is complete control",0
same,B. signalgrass plant response rating,[2]; [27],0
same,"Plant response rating, Cocklebur",[3]; [20],0
same,"Plant response rating, Cocklebur",[3]; [21],0
same,Cocklebur plant response rating,[3]; [22],0
same,"Plant response rating, Cocklebur",[3]; [23],0
same,"Plant response rating, Cocklebur",[3]; [24],0
same,Cocklebur plant response rating,[3]; [28],0
same,Cocklebur plant response rating,[3]; [26],0
same,Cocklebur plant response rating,[3]; [27],0
same,"Plant response rating, Corn",[4]; [20],0
same,"Plant response rating, Corn",[4]; [21],0
same,Corn plant response rating,[4]; [22],0
same,"Plant response rating, Corn",[4]; [23],0
same,"Plant response rating, Corn",[4]; [24],0
same,Corn plant response rating,[4]; [28],0
same,Corn plant response rating,[4]; [27],0
same,"Plant response rating, Crabgrass",[5]; [20],0
same,"Plant response rating, Crabgrass",[5]; [21],0
same,Crabgrass plant response rating,[5]; [22],0
same,"Plant response rating, Crabgrass",[5]; [23],0
same,"Plant response rating, Crabgrass",[5]; [24],1
same,Crabgrass plant response rating,[5]; [28],8
same,Crabgrass plant response rating,[5]; [26],10
same,Crabgrass plant response rating,[5]; [27],0
same,"Plant response rating, Giant foxtail",[6]; [20],0
same,"Plant response rating, Giant foxtail",[6]; [21],0
same,Giant foxtail plant response rating,[6]; [22],6
same,"Plant response rating, Giant foxtail",[6]; [23],0
same,"Plant response rating, Giant foxtail",[6]; [24],8
same,Giant foxtail plant response rating,[6]; [28],9
same,Giant foxtail plant response rating,[6]; [26],10
same,Giant foxtail plant response rating,[6]; [27],0
same,"Plant response rating, Morningglory",[7]; [21],5
same,Morningglory plant response rating,[7]; [22],5
same,"Plant response rating, Morningglory",[7]; [23],0
same,"Plant response rating, Morningglory",[7]; [24],0
same,Morningglory plant response rating,[7]; [28],0
same,Morningglory plant response rating,[7]; [26],0
same,"Plant response rating, Redroot pigweed",[8]; [21],0
same,Redroot pigweed plant response rating,[8]; [22],0
same,"Plant response rating, Redroot pigweed",[8]; [23],0
same,"Plant response rating, Redroot pigweed",[8]; [24],0
same,Redroot pigweed plant response rating,[8]; [28],0
same,Redroot pigweed plant response rating,[8]; [26],0
same,"Plant response rating, Rape",[9]; [21],0
same,Rape plant response rating,[9]; [22],2
same,"Plant response rating, Rape",[9]; [23],0
same,"Plant response rating, Rape",[9]; [24],0
same,Rape plant response rating,[9]; [28],0
same,Rape plant response rating,[9]; [26],0
same,"Plant response rating, Soybean",[10]; [21],2
same,Soybean plant response rating,[10]; [22],3
same,"Plant response rating, Soybean",[10]; [23],0
same,"Plant response rating, Soybean",[10]; [24],0
same,Soybean plant response rating,[10]; [28],0
same,Soybean plant response rating,[10]; [26],3
same,"Plant response rating, Sugarbeets",[11]; [21],0
same,Sugarbeets plant response rating,[11]; [22],0
same,"Plant response rating, Sugarbeets",[11]; [23],0
same,"Plant response rating, Sugarbeets",[11]; [24],0
same,Sugarbeets plant response rating,[11]; [28],0
same,Sugarbeets plant response rating,[11]; [26],0
same,"Plant response rating, Velvetleaf",[12]; [21],0
same,Velvetleaf plant response rating,[12]; [22],0
same,"Plant response rating, Velvetleaf",[12]; [23],0
same,"Plant response rating, Velvetleaf",[12]; [24],0
same,Velvetleaf plant response rating,[12]; [28],0
same,Velvetleaf plant response rating,[12]; [26],0
same,Wheat plant response rating,[13]; [22],0
same,"Plant response rating, Wheat",[13]; [23],0
same,"Plant response rating, Wheat",[13]; [24],0
same,Wheat plant response rating,[13]; [28],0
same,Wheat plant response rating,[13]; [26],0
same,Wild oats plant response rating,[14]; [22],0
same,"Plant response rating, Wild oats",[14]; [23],0
same,"Plant response rating, Wild oats",[14]; [24],0
same,Wild oats plant response rating,[14]; [28],0
same,Wild oats plant response rating,[14]; [26],0
same,"Plant response rating, Nutsedge",[15]; [21],0
same,Nutsedge plant response rating,[15]; [22],0
same,"Plant response rating, Nutsedge",[15]; [23],0
same,"Plant response rating, Nutsedge",[15]; [24],0
same,Nutsedge plant response rating,[15]; [28],0
same,Nutsedge plant response rating,[15]; [26],0
same,"Plant response rating, Rice (0 to 10 scale, 0 is no effect, 10 is complete control)",[16]; [29],0
same,"Rice plant response rating (0 to 10 scale, 0 is no effect, 10 is complete control)",[16]; [30],0
same,Rice plant response rating,[16]; [31],0
same,Rice plant response rating,[16]; [32],0
same,"Plant response rating, S. Flatsedge (0 to 10 scale, 0 is no effect, 10 is complete control)",[17]; [29],0
same,"S. Flatsedge plant response rating (0 to 10 scale, 0 is no effect, 10 is complete control)",[17]; [30],0
same,S. Flatsedge plant response rating,[17]; [31],0
same,S. Flatsedge plant response rating,[17]; [32],0
same,"Plant response rating, Ducksalad (0 to 10 scale, 0 is no effect, 10 is complete control)",[18]; [29],0
same,"Ducksalad plant response rating (0 to 10 scale, 0 is no effect, 10 is complete control)",[18]; [30],0
same,Ducksalad plant response rating,[18]; [31],0
same,Ducksalad plant response rating,[18]; [32],0
same,"Plant response rating, Barnyardgrass (0 to 10 scale, 0 is no effect, 10 is complete control)",[19]; [29],0
same,"Barnyardgrass plant response rating (0 to 10 scale, 0 is no effect, 10 is complete control)",[19]; [30],0
same,Barnyardgrass plant response rating,[19]; [31],0
same,Barnyardgrass plant response rating,[19]; [32],0
